In patent US9255100B2 (BAYER INTELLECTUAL PROPERTY GMBH, priority 2010, dated 2016) one finds IC50 data, which are given here for 23 compounds.

Some results are limits rather than exact numbers.

For the test, the target named is T1, N-terminally GST-tagged human full length recombinant Mps-1 kinase (Homo sapiens, UniProt P33981).
T1 construct: N-terminally GST-tagged human full length recombinant Mps-1 kinase; purchased Invitrogen, Karslruhe, Germany PV4071
T1 sequence (P33981 1-857): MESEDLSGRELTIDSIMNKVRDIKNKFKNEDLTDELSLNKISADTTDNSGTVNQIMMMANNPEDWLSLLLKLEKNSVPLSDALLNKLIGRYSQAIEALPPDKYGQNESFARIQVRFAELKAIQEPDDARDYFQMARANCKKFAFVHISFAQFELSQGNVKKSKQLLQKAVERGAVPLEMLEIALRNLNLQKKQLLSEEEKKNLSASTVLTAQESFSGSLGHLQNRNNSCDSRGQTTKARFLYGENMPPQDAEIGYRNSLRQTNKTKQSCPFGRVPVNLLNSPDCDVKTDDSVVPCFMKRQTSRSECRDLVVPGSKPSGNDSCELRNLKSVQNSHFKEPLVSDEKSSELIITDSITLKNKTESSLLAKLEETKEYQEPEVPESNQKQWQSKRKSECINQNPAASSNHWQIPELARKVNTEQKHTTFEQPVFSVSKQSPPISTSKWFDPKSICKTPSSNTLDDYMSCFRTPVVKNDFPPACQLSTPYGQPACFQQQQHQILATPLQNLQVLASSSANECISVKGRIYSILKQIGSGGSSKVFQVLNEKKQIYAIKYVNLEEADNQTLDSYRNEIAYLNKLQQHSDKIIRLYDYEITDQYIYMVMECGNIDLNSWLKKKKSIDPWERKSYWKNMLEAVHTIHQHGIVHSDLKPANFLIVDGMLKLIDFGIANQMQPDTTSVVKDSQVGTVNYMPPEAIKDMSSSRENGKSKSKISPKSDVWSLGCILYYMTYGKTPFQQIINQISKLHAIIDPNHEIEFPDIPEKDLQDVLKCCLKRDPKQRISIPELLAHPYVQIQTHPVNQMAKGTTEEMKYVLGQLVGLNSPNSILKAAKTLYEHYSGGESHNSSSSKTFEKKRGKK
The test can be described thus: Mps-1 kinase assay (TR-FRET). The following applies: Mps1 IC50 [nM], 10 μM ATP, 1 μM peptide substrate, 60 min at 22° C. In kind it is biochemical. The method, then: The human kinase Mps-1 phosphorylates a biotinylated substrate peptide. Detection of the phosphorylated product is achieved by time-resolved fluorescence resonance energy transfer (TR-FRET) from Europium-labelled anti-phospho-Serine/Threonine antibody as donor to streptavidin labelled with cross-linked allophycocyanin (SA-XLent) as acceptor. Compounds are tested for their inhibition of the kinase activity.
N-terminally GST-tagged human full length recombinant Mps-1 kinase (purchased from Invitrogen, Karslruhe, Germany, cat. no PV4071) was used. As substrate for the kinase reaction a biotinylated peptide of the amino-acid sequence […] (C-terminus in amide form, purchased from Biosynthan GmbH, Berlin) was used.
The concentration of Mps-1 in the assay was adjusted to the activity of the enzyme lot and was chosen appropriate to have the assay in the linear range, typical enzyme concentrations were in the range of about 1 nM (final conc. in the 5 μl assay volume).
The resulting mixture was incubated 1 h at 22° C. to allow the binding of the phosphorylated peptide to the anti-phospho(Ser/Thr)-Europium-antibody. Subsequently the amount of phosphorylated substrate was evaluated by measurement of the resonance energy transfer from the Europium-labelled anti-phospho(Ser/Thr) antibody to the Streptavidin-XLent.
For orientation: Time-resolved FRET reads energy transfer from a long-lived donor to a nearby acceptor.
As to `COc1ccc(Nc2cc(NCCC(F)(F)F)c3ncc(-c4ccc(C(=O)NC5CC5)c(C)c4)n3n2)cc1` [Example 425, N-cyclopropyl-4-{6-[(4-methoxyphenyl)amino]-8-[(3,3,3-trifluoropropyl)amino]imidazo[1,2-b]pyridazin-3-yl}-2-methylbenzamide], the 50% inhibitory concentration (IC50) (commonly the concentration that inhibits the measured activity by half) is 0.1 nM.
With `Cc1cc(-c2cnc3c(NCC(C)(C)O)cc(Oc4ccc(N5CCNCC5)cc4)nn23)ccc1C(=O)NC1CC1` [Example 320, N-cyclopropyl-4-{8-[(2-hydroxy-2-methylpropyl)amino]-6-[4-(piperazin-1-yl)phenoxy]imidazo [1,2-b]pyridazin-3-yl}-2-methylbenzamide] the figure was 3.3 nM; with `Cc1cc(-c2cnc3c(NCC4CN(C)C4)cc(Oc4cccc(F)c4F)nn23)ccc1C(=O)NC1CC1` [Example 543, N-cyclopropyl-4-[6-(2,3-difluorophenoxy)-8-{[(1-methylazetidin-3-yl)methyl]amino}imidazo[1,2-b]pyridazin-3-yl]-2-methylbenzamide], 0.2 nM.
Consider `COc1ccc(Nc2cc(NCCC(F)(F)F)c3ncc(-c4ccc(C(=O)NC5CC5)c(C)c4)n3n2)cc1F` [Example 424, N-cyclopropyl-4-{6-[(3-fluoro-4-methoxyphenyl)amino]-8-[(3,3,3-trifluoropropyl)amino]imidazo[1,2-b]pyridazin-3-yl}-2-methylbenzamide], for which the IC50 is 0.2 nM.
With `Cc1cc(-c2cnc3c(NCC(C)(C)O)cc(S(C)(=O)=O)nn23)ccc1C(=O)NC1CC1` [Example 18, N-cyclopropyl-4-{8-[(2-hydroxy-2-methylpropyl)amino]-6-(methylsulfonyl)imidazo[1,2-b]pyridazin-3-yl}-2-methylbenzamide] the figure was 228 nM; with `Cc1cc(-c2cnc3c(NCC(C)(C)O)cc(Sc4c(F)cccc4F)nn23)ccc1C(=O)NC1CC1` [Example 218, N-cyclopropyl-4-{6-[(2,6-difluorophenyl)sulfanyl]-8-[(2-hydroxy-2-methylpropyl)amino]imidazo[1,2-b]pyridazin-3-yl}-2-methylbenzamide], 3.7 nM.
With `Cc1cc(-c2cnc3c(NCCC(F)(F)F)cc([S+]([O-])c4cccc(F)c4)nn23)ccc1C(=O)NC1CC1` (racemic) [Example 83B, (RS)—N-cyclopropyl-4-{6-[(3-fluorophenyl)sulfinyl]-8-[(3,3,3-trifluoropropyl)amino]imidazo[1,2-b]pyridazin-3-yl}-2-methylbenzamide] the figure was 0.8 nM; with `Cc1cc(-c2cnc3c(NCC(C)(C)O)cc(SC4CCCCC4)nn23)ccc1C(=O)NC1CC1` [Example 172, 4-{6-(cyclohexylsulfanyl)-8-[(2-hydroxy-2-methylpropyl)amino]imidazo[1,2-b]pyridazin-3-yl}-N-cyclopropyl-2-methylbenzamide], 0.8 nM; with `Cc1cc(-c2cnc3c(NCCC(F)(F)F)cc(Oc4cccc5c4NCCC5)nn23)ccc1C(=O)NC1CC1` [Example 466, N-cyclopropyl-2-methyl-4-{6-(1,2,3,4-tetrahydro-quinolin-8-yloxy)-8-[(3,3,3-trifluoropropyl)amino]imidazo[1,2-b]pyridazin-3-yl} benzamide], 4.8 nM.
The value for `CC(C)CNc1cc(-c2ccsc2)nn2c(-c3ccc(C(=O)NC4CC4)cc3)cnc12` [Example 122, N-cyclopropyl-4-{8-[(2-methylpropyl)amino]-6-(thiophen-3-yl)imidazo [1,2-b]pyridazin-3-yl} benzamide] was 2.9 nM.
As for `CC(C)CNc1cc(Cl)nn2c(-c3ccc(C(=O)NC(C)C)cc3)cnc12` [Example 179, 4-{6-Chloro-8-[(2-methylpropyl)amino]imidazo[1,2-b]pyridazin-3-yl}-N-(propan-2-yl)benzamide], the IC50 was 601 nM.
The value for `O=C(NC1CC1)c1ccc(-c2cnc3c(NCCC(F)(F)F)cc(Sc4ccccc4)nn23)c(O)c1` [Example 74, N-cyclopropyl-3-hydroxy-4-{6-(phenylsulfanyl)-8-[(3,3,3-trifluoropropyl)amino]imidazo[1,2-b]pyridazin-3-yl}benzamide] was under 0.7 nM; that for `COc1ccc(Cc2cc(NCCC(F)(F)F)c3ncc(-c4ccc(C(=O)NC5CC5)c(C)c4)n3n2)cc1F` [Example 483, N-cyclopropyl-4-{6-(3-fluoro-4-methoxybenzyl)-8-[(3,3,3-tri-fluoropropyl)amino]imidazo [1,2-b]pyridazin-3-yl}-2-methylbenzamide] was 0.1 nM.
With `Cc1cc(-c2cnc3c(NCC(C)(C)O)cc(Oc4cccc(F)c4F)nn23)ccc1C(=O)NC1CC1` [Example 92, N-cyclopropyl-4-{6-(2,3-difluorophenoxy)-8-[(2-hydroxy-2-methylpropyl)amino]imidazo[1,2-b]pyridazin-3-yl}-2-methylbenzamide] the figure was 0.2 nM.
Consider `CNc1cc(Oc2cncc(F)c2)nn2c(-c3ccc(C(=O)NC4CC4)c(C)c3)cnc12` [Example 533, N-cyclopropyl-4-{6-[(5-fluoropyridin-3-yl)oxy]-8-(methylamino)imidazo [1,2-b]pyridazin-3-yl}-2-methylbenzamide], for which the IC50 is 1.2 nM.
For `Cc1cc(-c2cnc3c(NCC(C)(C)O)cc(Sc4ccncc4)nn23)ccc1C(=O)NC1CC1` [Example 333, N-cyclopropl-4-{8-[(2-hydroxy-2-methylpropyl)amino]-6-(pyridin-4-yl-sulfanyl)imidazo[1,2-b]pyridazin-3-yl}-2-methyl-benzamide], the IC50 was 9.5 nM.
The value for `Cc1cc(-c2cnc3c(NCc4cc[nH]n4)cc(Oc4cccc(F)c4)nn23)ccc1C(=O)NC1CC1` [Example 489, N-cyclopropyl-4-{6-(3-fluoro-phenoxy)-8-[(1H-pyrazol-3-ylmethyl)amino]imidazo [1,2-b]pyridazin-3-yl}-2-methylbenzamide] was 0.2 nM; that for `Cc1cc(-c2cnc3c(NCC4CCSCC4)cc(Oc4ccc(Cl)cc4)nn23)ccc1C(=O)NC1CC1` [Example 292, 4-{6-(4-chlorophenoxy)-8-[(tetrahydro-2H-thiopyran-4-ylmethyl)amino]imidazo[1,2-b]pyridazin-3-yl}-N-cyclopropyl-2-methylbenzamide] was 0.5 nM.
The value for `Cc1cc(-c2cnc3c(NCC(C)(C)O)cc(Oc4ccccc4)nn23)ccc1C(=O)NC1CC1` [Example 76, N-cyclopropyl-4-{8-[(2-hydroxy-2-methylpropyl)amino]-6-phenoxyimidazo[1,2-b]pyridazin-3-yl}-2-methylbenzamide] was under 0.7 nM; that for `Cc1cc(-c2cnc3c(NCC4CN(C)CCO4)cc(Sc4ccccc4)nn23)ccc1C(=O)NC1CC1` (racemic) [Example 56, (RS)—N-cyclopropyl-2-methyl-4-[8-{[(4-methylmorpholin-2-yl)methyl]amino}-6-(phenylsulfanyl)imidazo[1,2-b]pyridazin-3-yl]benzamide] was under 1 nM; that for `Cc1cc(-c2cnc3c(NCCC(F)(F)F)cc(C4CC4)nn23)ccc1C(=O)NC1CC1` [Example 48, N-cyclopropyl-4-{6-cyclopropyl-8-[(3,3,3-trifluoropropyl)amino]imidazo[1,2-b]pyridazin-3-yl}-2-methylbenzamide] was 1.4 nM.
Regarding `Cc1cccc(Nc2cc(NCC(C)(C)O)c3ncc(-c4ccc(C(=O)NC5CC5)c(C)c4)n3n2)c1` [Example 308, N-cyclopropyl-4-{8-[(2-hydroxy-2-methylpropyl)amino]-6-[(3-methylphenyl)amino]imidazo[1,2-b]pyridazin-3-yl}-2-methylbenzamide], the IC50 was 1 nM.
As to `CCNC(=O)c1ccc(-c2cnc3c(NCC4CCOCC4)cc(Oc4ccc(OC)cc4)nn23)cc1C` [Example 597, N-ethyl-4-{6-(4-methoxyphenoxy)-8-[(tetrahydro-2H-pyran-4-ylmethyl)a-mino]imidazo[1,2-b]pyridazin-3-yl}-2-methylbenzamide], the IC50 amounted to 1.1 nM.
